Assay results published in ChEMBL document CHEMBL4138139, “Discovery of VU6005649, a CNS Penetrant mGlu7/8 Receptor PAM Derived from a Series of Pyrazolo[1,5-a]pyrimidines” (ACS Med Chem Lett, 2017).

Assays:
[1] = target: Cytochrome P450 2D6 (Homo sapiens, UniProt P10635); test: Inhibition of CYP2D6 in human liver microsomes using dextromethorphan as substrate preincubated for 15 mins followed by NADPH addition measured after 8 mins by LC-MS/MS analysis; type: ADME
[2] = Brain to plasma partition coefficient, Kp of the compound in Sprague-Dawley rat at 0.2 to […], iv administered as cassette dose measured at […] post dose by LC-MS/MS analysis; type: ADME, organism-based; conditions: brain and plasma
[3] = target: Cytochrome P450 2C9 (Homo sapiens, UniProt P11712); test: Inhibition of CYP2C9 in human liver microsomes using diclofenac as substrate preincubated for 15 mins followed by NADPH addition measured after 8 mins by LC-MS/MS analysis; type: ADME
Sequence of Cytochrome P450 2C9 (P11712 whole entry): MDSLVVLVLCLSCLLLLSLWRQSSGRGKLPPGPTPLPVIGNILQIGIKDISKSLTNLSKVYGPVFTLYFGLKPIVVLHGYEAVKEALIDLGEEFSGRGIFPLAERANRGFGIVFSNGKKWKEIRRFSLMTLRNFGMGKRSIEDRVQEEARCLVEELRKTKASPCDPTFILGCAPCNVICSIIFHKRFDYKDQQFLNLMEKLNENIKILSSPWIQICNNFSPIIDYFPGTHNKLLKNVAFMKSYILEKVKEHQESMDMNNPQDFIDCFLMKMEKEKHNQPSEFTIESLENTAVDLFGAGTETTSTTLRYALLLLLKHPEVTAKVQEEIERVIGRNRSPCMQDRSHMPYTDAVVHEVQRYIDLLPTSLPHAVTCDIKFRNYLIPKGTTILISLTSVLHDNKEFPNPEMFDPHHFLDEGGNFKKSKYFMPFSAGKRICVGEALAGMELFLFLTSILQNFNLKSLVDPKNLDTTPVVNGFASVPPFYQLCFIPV

[4] = target: T1, Cytochrome P450 1A2 (Homo sapiens, UniProt P05177); test: Inhibition of CYP1A2 in human liver microsomes using phenacetin as substrate preincubated for 15 mins followed by NADPH addition measured after 8 mins by LC-MS/MS analysis; type: ADME
T1 sequence (P05177 whole entry): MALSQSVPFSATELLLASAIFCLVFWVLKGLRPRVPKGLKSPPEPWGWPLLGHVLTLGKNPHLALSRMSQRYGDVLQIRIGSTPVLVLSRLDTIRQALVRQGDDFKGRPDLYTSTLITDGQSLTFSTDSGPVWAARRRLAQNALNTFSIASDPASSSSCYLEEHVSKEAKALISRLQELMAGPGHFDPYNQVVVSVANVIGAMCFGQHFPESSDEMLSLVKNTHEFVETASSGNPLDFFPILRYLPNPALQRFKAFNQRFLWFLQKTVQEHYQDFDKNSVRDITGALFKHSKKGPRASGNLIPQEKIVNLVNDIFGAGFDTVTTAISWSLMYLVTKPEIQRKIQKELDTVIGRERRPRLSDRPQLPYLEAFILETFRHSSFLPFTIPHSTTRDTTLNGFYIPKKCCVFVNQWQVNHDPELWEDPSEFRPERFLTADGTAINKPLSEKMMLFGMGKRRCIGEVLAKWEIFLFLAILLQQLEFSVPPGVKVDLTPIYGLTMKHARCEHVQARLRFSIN

[5] = target: Cytochrome P450 3A4 (Homo sapiens, UniProt P08684); test: Inhibition of CYP3A4 in human liver microsomes using midazolam as substrate preincubated for 15 mins followed by NADPH addition measured after 8 mins by LC-MS/MS analysis; type: ADME
Sequence of Cytochrome P450 3A4 (P08684 whole entry): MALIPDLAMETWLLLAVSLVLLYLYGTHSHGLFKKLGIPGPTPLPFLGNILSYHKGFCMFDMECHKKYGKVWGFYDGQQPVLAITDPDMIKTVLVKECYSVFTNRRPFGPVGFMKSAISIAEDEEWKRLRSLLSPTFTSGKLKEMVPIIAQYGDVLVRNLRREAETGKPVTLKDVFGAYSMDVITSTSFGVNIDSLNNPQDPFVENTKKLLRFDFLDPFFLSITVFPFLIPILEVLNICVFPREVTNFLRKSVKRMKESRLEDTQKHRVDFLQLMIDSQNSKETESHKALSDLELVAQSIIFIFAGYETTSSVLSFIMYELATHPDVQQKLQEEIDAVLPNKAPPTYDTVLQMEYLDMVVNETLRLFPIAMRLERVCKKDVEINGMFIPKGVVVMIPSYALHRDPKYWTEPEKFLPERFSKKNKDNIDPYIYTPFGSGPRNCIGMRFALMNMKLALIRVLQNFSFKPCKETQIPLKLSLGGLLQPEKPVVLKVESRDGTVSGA

[6] = Unbound brain to plasma concentration ratio in Sprague-Dawley rat at 0.2 to […], iv administered as cassette dose measured at […] post dose by LC-MS/MS analysis; type: ADME, organism-based; conditions: brain and plasma, read-out: K(p,uu,brain)
[7] = target: T2, Metabotropic glutamate receptor 8 (Rattus norvegicus, UniProt P70579); test: Positive allosteric modulation of rat mGlu8 receptor expressed in HEK cells co-expressing Galphai5 assessed as increase in glutamate-induced calcium flux incubated for 142 secs followed by glutamate addition measured after 120 secs by Fluo4-AM dye based fluorescence assay; type: functional, cell-based
T2 sequence (P70579 whole entry): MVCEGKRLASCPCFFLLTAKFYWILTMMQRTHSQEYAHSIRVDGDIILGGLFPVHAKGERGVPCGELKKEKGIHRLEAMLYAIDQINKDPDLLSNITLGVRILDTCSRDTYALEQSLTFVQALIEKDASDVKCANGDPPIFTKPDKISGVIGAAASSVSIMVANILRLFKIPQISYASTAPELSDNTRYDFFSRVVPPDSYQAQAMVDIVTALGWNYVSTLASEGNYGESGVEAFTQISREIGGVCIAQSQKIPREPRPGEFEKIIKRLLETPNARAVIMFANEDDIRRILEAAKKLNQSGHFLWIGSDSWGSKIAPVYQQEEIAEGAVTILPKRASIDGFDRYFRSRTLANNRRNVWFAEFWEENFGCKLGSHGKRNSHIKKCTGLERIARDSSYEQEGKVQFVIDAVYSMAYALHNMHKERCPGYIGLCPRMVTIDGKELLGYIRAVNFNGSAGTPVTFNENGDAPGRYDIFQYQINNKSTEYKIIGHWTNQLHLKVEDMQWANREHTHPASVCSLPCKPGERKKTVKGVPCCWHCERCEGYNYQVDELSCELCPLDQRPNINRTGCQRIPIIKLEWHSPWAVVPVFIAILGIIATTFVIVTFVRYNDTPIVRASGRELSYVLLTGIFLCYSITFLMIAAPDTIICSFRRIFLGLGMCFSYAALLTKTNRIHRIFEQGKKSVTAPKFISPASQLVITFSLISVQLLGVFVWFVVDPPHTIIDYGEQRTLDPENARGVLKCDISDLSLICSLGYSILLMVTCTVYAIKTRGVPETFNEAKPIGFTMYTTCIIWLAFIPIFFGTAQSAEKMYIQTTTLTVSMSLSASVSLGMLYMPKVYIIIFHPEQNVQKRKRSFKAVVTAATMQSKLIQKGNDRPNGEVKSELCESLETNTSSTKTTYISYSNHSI

[8] = target: T3, Metabotropic glutamate receptor 7 (Rattus norvegicus, UniProt P35400); test: Positive allosteric modulation of rat mGlu7 receptor expressed in HEK cells co-expressing Galphai5 assessed as increase in glutamate-induced calcium flux incubated for 142 secs followed by glutamate addition measured after 120 secs by Fluo4-AM dye based fluorescence assay; type: functional, cell-based
T3 sequence (P35400 whole entry): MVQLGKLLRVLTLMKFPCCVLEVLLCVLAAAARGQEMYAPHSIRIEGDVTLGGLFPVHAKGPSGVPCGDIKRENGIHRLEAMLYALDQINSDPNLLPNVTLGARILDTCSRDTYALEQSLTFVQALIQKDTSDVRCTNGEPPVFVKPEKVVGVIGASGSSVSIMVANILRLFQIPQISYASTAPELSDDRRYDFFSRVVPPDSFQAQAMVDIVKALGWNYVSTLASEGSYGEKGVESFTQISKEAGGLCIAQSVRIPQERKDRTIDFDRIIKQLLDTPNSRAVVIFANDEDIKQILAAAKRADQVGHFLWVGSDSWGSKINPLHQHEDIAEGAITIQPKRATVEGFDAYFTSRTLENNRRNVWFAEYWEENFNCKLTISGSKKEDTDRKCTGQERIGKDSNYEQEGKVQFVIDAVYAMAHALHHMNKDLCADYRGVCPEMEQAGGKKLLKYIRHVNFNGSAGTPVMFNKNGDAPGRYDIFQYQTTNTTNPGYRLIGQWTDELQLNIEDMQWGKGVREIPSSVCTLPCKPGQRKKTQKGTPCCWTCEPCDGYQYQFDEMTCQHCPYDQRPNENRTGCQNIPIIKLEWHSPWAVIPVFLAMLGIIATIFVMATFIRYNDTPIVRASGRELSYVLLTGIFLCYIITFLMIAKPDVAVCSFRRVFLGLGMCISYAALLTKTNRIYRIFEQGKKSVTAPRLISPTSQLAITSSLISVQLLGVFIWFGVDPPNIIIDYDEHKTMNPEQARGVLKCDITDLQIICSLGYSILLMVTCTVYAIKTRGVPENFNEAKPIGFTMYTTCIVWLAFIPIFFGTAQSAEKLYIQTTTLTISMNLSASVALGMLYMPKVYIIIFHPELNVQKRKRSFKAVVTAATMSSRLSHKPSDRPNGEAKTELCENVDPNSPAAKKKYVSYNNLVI

[9] = target: T4, Metabotropic glutamate receptor 4 (Homo sapiens, UniProt Q14833); test: Positive allosteric modulation of human mGlu4 receptor expressed in CHO cells co-expressing Gqi5 assessed as increase in glutamate-induced calcium mobilization incubated for 142 secs followed by glutamate addition measured after 120 secs by Fluo4-AM dye based fluorescence assay; type: functional, cell-based
T4 sequence (Q14833 whole entry): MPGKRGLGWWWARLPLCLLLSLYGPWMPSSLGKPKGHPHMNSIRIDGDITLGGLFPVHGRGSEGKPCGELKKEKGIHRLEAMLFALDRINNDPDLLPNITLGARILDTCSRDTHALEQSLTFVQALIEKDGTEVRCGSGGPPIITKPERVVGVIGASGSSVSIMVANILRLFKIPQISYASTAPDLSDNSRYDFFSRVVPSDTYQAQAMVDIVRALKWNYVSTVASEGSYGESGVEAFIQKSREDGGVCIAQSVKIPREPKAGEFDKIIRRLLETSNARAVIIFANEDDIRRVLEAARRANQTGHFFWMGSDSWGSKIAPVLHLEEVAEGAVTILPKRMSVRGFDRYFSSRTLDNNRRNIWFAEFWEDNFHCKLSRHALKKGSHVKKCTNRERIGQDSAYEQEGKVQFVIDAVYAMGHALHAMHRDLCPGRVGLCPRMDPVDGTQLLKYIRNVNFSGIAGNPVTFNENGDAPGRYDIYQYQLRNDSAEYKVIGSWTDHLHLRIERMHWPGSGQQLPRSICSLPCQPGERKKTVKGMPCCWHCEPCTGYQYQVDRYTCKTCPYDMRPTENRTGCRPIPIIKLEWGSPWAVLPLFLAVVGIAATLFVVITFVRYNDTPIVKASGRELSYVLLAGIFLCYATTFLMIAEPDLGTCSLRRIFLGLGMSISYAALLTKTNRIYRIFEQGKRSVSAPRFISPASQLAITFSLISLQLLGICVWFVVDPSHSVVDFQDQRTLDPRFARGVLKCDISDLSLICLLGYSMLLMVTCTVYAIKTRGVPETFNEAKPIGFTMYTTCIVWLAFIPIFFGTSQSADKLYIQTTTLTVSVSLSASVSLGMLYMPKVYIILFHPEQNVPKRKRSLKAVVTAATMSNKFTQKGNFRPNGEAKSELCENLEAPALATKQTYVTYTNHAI

[10] = target: T4, Metabotropic glutamate receptor 4; test: Negative allosteric modulation of human mGlu4 receptor expressed in CHO cells co-expressing Gqi5 harboring GIRK channel assessed as decrease in glutamate-induced thallium flux incubated for 142 secs followed by glutamate addition measured after 120 secs by Fluo4-AM dye based fluorescence assay; type: functional, cell-based
[11] = target: T2, Metabotropic glutamate receptor 8; test: Negative allosteric modulation of rat mGlu8 receptor expressed in HEK cells co-expressing Galphai5 assessed as decrease in glutamate-induced thallium flux incubated for 142 secs followed by glutamate addition measured after 120 secs by Fluo4-AM dye based fluorescence assay; type: functional, cell-based
[12] = target: T3, Metabotropic glutamate receptor 7; test: Negative allosteric modulation of rat mGlu7 receptor expressed in HEK cells co-expressing Galphai5 assessed as decrease in glutamate-induced thallium flux incubated for 142 secs followed by glutamate addition measured after 120 secs by Fluo4-AM dye based fluorescence assay; type: functional, cell-based

Sequence of Cytochrome P450 2D6 (P10635 whole entry): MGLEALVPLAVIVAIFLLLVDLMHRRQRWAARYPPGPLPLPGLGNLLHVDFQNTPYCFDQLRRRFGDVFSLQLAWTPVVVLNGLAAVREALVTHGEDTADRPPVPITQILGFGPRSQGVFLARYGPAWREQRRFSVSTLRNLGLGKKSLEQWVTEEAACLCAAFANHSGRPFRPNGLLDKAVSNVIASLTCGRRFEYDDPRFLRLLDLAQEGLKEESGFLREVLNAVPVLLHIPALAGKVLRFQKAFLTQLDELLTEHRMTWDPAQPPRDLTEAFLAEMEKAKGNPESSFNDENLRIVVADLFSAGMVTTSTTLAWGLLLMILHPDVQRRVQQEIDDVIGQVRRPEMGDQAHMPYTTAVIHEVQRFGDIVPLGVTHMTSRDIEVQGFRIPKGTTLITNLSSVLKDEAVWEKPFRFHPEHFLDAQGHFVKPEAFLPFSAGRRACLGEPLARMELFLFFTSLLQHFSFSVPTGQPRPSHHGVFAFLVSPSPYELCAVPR

IC50 [1]	Kp at […] [2]	IC50 [3]	IC50 [4]	IC50 [5]	Kp uu at […] [6]	SMILES	further results
> 30 µM	4.3	27 µM	330 nM	> 30 µM	–	COc1ccc(-c2c(C)nn3c(C(F)(F)F)cc(C)nc23)cc1F	–
–	1.5	–	–	–	0.8	Cc1cc(C(F)(F)F)n2nc(C)c(-c3ccc(OC(F)F)cc3)c2n1	–
–	–	–	–	–	–	COC(=O)c1ccc(-n2c(C)cc(C(=O)CSc3ccc(NC(C)=O)cc3)c2C)cc1	EC50 [7]: 900 nM; EC50 [8]: 1500 nM; EC50 [9]: 3.2 µM
> 30 µM	1.4	> 30 µM	690 nM	> 30 µM	–	COc1ccc(-c2c(C)nn3c(C(F)(F)F)cc(C)nc23)cc1	–
–	4.8	–	–	–	1.7	COc1ccc(-c2c(C)nn3c(C(F)(F)F)cc(C)nc23)cc1Cl	–
> 30 µM	2.7	> 30 µM	2930 nM	> 30 µM	–	COc1cc(F)c(-c2c(C)nn3c(C(F)(F)F)cc(C)nc23)cc1F	–
–	–	–	–	–	–	CCc1nc2c(o1)CC(c1ccc(C)cc1C)CC2=O (configuration not stated)	IC50 [10]: > 10 µM; IC50 [11]: > 10 µM; IC50 [12]: 650 nM
> 30 µM	2.2	> 30 µM	8670 nM	> 30 µM	–	COc1cc(F)c(-c2c(C)nn3c(C(F)(F)F)cc(C)nc23)c(F)c1	–
–	1.4	–	–	–	0.9	COc1ccc(-c2c(C)nn3c(C(F)(F)F)cc(C)nc23)c(F)c1	–
